Consider seven compounds from patent US9193728B2, “Fused tetracyclic pyrido [4,3-B] indole and pyrido [3,4-B] indole derivatives and methods of use” (Medivation Technologies, Inc., priority 2010, dated 2015).

What is called inhibition is the change of the read-out against control, counted positive when it falls.

The target in data set [1] is T1, human recombinant serotonin (5-Hydroxytryptamine) 5-HT2C receptor (Homo sapiens, UniProt P28335).
T1 construct: expressed in transfected cells; host or cells: CHO-K1
T1 sequence (P28335 33-458): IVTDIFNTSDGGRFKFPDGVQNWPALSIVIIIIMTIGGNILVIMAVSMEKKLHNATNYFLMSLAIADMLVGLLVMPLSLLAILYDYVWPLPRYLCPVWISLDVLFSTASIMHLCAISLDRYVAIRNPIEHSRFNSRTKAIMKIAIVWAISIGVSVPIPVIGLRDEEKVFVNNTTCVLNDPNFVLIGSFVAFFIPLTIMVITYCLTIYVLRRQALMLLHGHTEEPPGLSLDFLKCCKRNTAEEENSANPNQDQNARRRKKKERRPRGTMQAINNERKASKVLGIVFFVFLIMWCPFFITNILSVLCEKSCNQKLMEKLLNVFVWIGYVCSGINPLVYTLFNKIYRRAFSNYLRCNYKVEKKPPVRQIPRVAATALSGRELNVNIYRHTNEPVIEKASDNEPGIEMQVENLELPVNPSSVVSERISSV
The experiment in a line: Serotonin 5-HT2C radioligand binding ([3H]Mesulergine). The conditions noted are these: for inhibition at 1 µM: compound at 1 μM, read-out: Serotonin (1 μM) 5-HT2C, percentage inhibition of ligand binding; for inhibition at 0.1 µM: compound at 0.1 μM, read-out: Serotonin (0.1 μM) 5-HT2C, percentage inhibition of ligand binding. The protocol:
To evaluate in radioligand binding assays the activity of compounds of the invention, human recombinant serotonin (5-Hydroxytryptamine) 5-HT2C receptor expressed in Chinese hamster ovary (CHO)-K1 cells (Wolf, W. et al, J. Neurochem. 69:1449, 1997) in a modified Tris-HCl buffer (50 mM Tris-HCl, pH 7.4, 0.1% Ascorbic Acid, 10 μM Pargyline) was used. Compounds of the invention were incubated with 1 nM [^3H]Mesulergine for 60 min. at 25° C. Non-specific binding was estimated in the presence of 1 μM Mianserin. Receptor proteins were filtered and washed, the filters were then counted to determine [^3H]Mesulergine specifically bound. Compounds were screened at 1 μM or lower, using 1% DMSO as vehicle. Biochemical assay results are presented as the percent inhibition of specific binding in Table 4.

Data set [2] deals with T2, human recombinant histamine H2 receptor (Homo sapiens, UniProt P25021).
T2 construct: expressed in transfected cells; host or cells: CHO-K1
T2 sequence (P25021 whole entry): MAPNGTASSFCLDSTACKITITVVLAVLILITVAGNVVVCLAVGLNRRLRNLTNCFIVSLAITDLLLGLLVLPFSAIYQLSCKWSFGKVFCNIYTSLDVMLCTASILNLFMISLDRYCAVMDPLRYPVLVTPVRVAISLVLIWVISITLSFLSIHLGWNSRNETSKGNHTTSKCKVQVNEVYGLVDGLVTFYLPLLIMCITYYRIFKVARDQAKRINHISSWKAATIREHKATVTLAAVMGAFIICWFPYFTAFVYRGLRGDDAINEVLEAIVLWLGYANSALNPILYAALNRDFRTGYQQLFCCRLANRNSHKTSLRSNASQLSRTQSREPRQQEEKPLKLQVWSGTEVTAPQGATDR
The experiment in a line: Histamine H2 radioligand binding ([125I]Aminopotentidine). The conditions noted are these: compound at 1 μM; 0.1 nM [125I]Aminopotentidine; read-out: Histamine Binding (1 μM) H2, percentage inhibition. The protocol:
To evaluate in radioligand binding assays the activity of compounds of the invention, human recombinant histamine H2 receptor expressed in Chinese hamster ovary (CHO) K1 cells (Ruat, M., Proc. Natl. Acad. Sci. USA. 87(5):1658, 1990) in a 50 mM Phosphate buffer, pH 7.4 was used. Compounds of the invention were incubated with 0.1 nM [^125I]Aminopotentidine for 120 min. at 25° C. Non-specific binding was estimated in the presence of 3 μM Tiotidine. Receptor proteins were filtered and washed, the filters were then counted to determine [^125I]Aminopotentidine specifically bound. Compounds were screened at 1 μM or lower, using 1% DMSO as vehicle. Biochemical assay results are presented as the percent inhibition of specific binding in Table 2.

In data set [3] the target is T3, human recombinant serotonin (5-Hydroxytryptamine) 5-HT6 receptor (Homo sapiens, UniProt P50406).
T3 construct: expressed in transfected cells; host or cells: HeLa
T3 sequence (P50406 whole entry): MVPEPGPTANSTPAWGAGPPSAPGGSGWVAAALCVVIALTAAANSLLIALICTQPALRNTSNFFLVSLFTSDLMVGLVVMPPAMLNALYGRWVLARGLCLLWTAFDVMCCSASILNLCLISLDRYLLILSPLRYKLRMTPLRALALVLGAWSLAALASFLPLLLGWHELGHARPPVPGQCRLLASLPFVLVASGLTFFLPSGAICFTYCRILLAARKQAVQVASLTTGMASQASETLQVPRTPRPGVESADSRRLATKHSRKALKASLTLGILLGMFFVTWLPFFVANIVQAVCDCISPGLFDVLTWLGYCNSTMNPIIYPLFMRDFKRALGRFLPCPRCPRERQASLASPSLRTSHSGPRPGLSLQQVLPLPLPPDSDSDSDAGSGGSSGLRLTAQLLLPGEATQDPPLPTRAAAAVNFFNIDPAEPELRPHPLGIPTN
Put plainly: Serotonin 5-HT6 radioligand binding ([3H]LSD). The conditions noted are these: for inhibition at 1 µM: compound at 1 μM, read-out: Serotonin (1 μM) 5-HT6, percentage inhibition of ligand binding; for inhibition at 0.1 µM: compound at 0.1 μM, read-out: Serotonin (0.1 μM) 5-HT6, percentage inhibition of ligand binding. The procedure: To evaluate in radioligand binding assays the activity of compounds of the invention, human recombinant serotonin (5-Hydroxytryptamine) 5-HT6 receptor expressed in human HeLa cells (Monsma, F. Jr. et al, Mol. Pharmacol. 43:320, 1993) in a modified Tris-HCl buffer (50 mM Tris-HCl, pH 7.4, 150 mM NaCl, 2 mM Ascorbic Acid, 0.001% BSA) was used. Compounds of the invention were incubated with 1.5 nM [3H]Lysergic acid diethylamide (LSD) for 120 min. at 37° C. Non-specific binding was estimated in the presence of 5 μM Serotonin (5-HT). Receptor proteins were filtered and washed, the filters were then counted to determine [3H]LSD specifically bound. Compounds were screened at 1 μM or lower, using 1% DMSO as vehicle. Biochemical assay results are presented as the percent inhibition of specific binding in Table 4.

The target of data set [4] is T4, human recombinant dopamine D2L receptor (Homo sapiens, UniProt P14416).
T4 construct: expressed in transfected cells; host or cells: CHO
T4 sequence (P14416 whole entry): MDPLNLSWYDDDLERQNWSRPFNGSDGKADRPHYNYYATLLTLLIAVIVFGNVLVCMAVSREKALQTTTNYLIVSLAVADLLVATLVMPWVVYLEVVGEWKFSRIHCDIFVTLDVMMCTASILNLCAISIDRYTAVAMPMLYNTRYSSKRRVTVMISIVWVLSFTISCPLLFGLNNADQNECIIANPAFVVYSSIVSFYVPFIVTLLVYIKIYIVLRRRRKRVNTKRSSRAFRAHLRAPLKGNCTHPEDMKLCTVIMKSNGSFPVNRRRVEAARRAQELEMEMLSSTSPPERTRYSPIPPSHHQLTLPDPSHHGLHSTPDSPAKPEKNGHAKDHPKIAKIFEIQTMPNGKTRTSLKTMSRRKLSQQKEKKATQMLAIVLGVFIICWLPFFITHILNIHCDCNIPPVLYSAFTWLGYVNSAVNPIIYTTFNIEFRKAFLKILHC
Put plainly: Dopamine D2L radioligand binding ([3H]Spiperone). The conditions noted are these: compound at 1 μM; read-out: Dopamine (1 μM) D2L, percentage inhibition of ligand binding. The protocol:
To evaluate in radioligand binding assays the activity of compounds of the invention, human recombinant dopamine D2L receptor expressed in Chinese hamster ovary (CHO) cells (Grandy, D. et al, Proc. Natl. Acad. Sci. USA. 86:9762, 1989; Hayes, G. et al, Mol. Endocrinol. 6:920, 1992) in a modified Tris-HCl buffer (50 mM Tris-HCl, pH 7.4, 1.4 mM Ascorbic Acid, 0.001% BSA, 150 mM NaCl) was used. Compounds of the invention were incubated with 0.16 nM [^3H]Spiperone for 120 min. at 25° C. Non-specific binding was estimated in the presence of 10 μM Haloperidol. Receptor proteins were filtered and washed, the filters were then counted to determine [^3H]Spiperone specifically bound. Compounds were screened at 1 μM or lower, using 1% DMSO as vehicle. Biochemical assay results are presented as the percent inhibition of specific binding in Table 3.

For data set [5], the target named is T5, human recombinant histamine H1 receptor (Homo sapiens, UniProt P35367).
T5 construct: expressed in transfected cells; host or cells: CHO-K1
T5 sequence (P35367 whole entry): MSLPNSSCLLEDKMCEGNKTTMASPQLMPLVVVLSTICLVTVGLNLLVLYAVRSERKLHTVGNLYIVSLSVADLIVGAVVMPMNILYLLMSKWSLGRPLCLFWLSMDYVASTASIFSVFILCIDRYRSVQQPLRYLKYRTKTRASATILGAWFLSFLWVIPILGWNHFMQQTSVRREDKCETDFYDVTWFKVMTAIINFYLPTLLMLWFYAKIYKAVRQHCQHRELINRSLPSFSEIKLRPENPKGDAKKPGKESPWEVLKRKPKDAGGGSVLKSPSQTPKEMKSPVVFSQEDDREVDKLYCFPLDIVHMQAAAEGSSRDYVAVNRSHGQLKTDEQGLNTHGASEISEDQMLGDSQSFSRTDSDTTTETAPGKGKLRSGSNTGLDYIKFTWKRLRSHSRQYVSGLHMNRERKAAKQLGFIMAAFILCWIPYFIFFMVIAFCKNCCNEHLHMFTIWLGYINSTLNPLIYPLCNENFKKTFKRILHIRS
The experiment in a line: Histamine H1 radioligand binding ([3H]Pyrilamine). The conditions noted are these: compound at 1 μM; 1.2 nM [3H]Pyrilamine; read-out: Histamine Binding (1 μM) H1, percentage inhibition. The procedure:
To evaluate in radioligand binding assays the activity of compounds of the invention, human recombinant histamine H1 receptor expressed in Chinese hamster ovary (CHO) K1 cells (De Backer, M. et al, Biochem. Biophys. Res. Comm. 197(3):1601, 1993) in a modified Tris-HCl buffer (50 mM Tris-HCl, pH 7.4, 2 mM MgCl2, 100 mM NaCl, 250 mM Sucrose) was used. Compounds of the invention were incubated with 1.2 nM [^3H]Pyrilamine for 180 min. at 25° C. Non-specific binding was estimated in the presence of 1 μM Pyrilamine. Receptor proteins were filtered and washed, the filters were then counted to determine [^3H]Pyrilamine specifically bound. Compounds were screened at 1 μM or lower, using 1% DMSO as vehicle. Biochemical assay results are presented as the percent inhibition of specific binding in Table 2.

Data set [6] deals with T6, human recombinant serotonin (5-Hydroxytryptamine) 5-HT2A receptor (Homo sapiens, UniProt P28223).
T6 construct: expressed in transfected cells; host or cells: CHO-K1
T6 sequence (P28223 whole entry): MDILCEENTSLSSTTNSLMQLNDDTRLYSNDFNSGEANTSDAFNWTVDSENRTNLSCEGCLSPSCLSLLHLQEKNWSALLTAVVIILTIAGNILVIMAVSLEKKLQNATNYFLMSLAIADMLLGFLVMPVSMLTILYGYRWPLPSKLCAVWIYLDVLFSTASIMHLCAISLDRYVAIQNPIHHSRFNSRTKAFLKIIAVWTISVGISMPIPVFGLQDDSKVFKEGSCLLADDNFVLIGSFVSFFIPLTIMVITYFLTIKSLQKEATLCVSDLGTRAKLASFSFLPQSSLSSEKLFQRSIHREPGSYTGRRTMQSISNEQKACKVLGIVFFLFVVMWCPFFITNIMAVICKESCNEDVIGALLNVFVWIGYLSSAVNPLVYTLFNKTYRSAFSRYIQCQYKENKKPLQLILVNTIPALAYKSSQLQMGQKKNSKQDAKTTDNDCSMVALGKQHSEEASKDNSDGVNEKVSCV
The experiment in a line: Serotonin 5-HT2A radioligand binding ([3H]Ketanserin). The conditions noted are these: for inhibition at 1 µM: compound at 1 μM, read-out: Serotonin (1 μM) 5-HT2A, percentage inhibition of ligand binding; for inhibition at 0.1 µM: compound at 0.1 μM, read-out: Serotonin (0.1 μM) 5-HT2A, percentage inhibition of ligand binding. The protocol:
To evaluate in radioligand binding assays the activity of compounds of the invention, human recombinant serotonin (5-Hydroxytryptamine) 5-HT2A receptor expressed in Chinese hamster ovary (CHO)-K1 cells (Bonhaus, D. et al, Br. J. Pharmacol. 115:622, 1995; Saucier, C. et al, J. Neurochem. 68:1998, 1997) in a 50 mM Tris-HCl buffer, pH 7.4, was used. Compounds of the invention were incubated with 0.5 nM [^3H]Ketanserin for 60 min. at 25° C. Non-specific binding was estimated in the presence of 1 μM Mianserin. Receptor proteins were filtered and washed, the filters were then counted to determine [^3H]Ketanserin specifically bound. Compounds were screened at 1 μM or lower, using 1% DMSO as vehicle. Biochemical assay results are presented as the percent inhibition of specific binding in Table 4.

In data set [7] the target is T7, human recombinant serotonin (5-Hydroxytryptamine) 5-HT7 receptor (Homo sapiens, UniProt P34969).
T7 construct: expressed in transfected cells; host or cells: CHO
T7 sequence (P34969 whole entry): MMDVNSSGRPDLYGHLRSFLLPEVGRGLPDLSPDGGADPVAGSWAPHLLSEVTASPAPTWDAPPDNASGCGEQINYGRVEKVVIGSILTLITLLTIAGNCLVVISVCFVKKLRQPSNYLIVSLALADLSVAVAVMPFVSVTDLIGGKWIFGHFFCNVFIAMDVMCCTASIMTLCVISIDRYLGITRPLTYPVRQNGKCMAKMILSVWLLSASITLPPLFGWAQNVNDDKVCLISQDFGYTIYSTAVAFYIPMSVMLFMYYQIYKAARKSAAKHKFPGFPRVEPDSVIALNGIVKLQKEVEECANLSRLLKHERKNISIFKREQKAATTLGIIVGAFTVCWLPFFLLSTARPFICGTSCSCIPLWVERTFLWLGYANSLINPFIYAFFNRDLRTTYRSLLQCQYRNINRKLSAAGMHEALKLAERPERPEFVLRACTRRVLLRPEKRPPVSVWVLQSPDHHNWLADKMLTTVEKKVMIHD
The experiment in a line: Serotonin 5-HT7 radioligand binding ([3H]LSD). The conditions noted are these: for inhibition at 1 µM: compound at 1 μM, read-out: Serotonin (1 μM) 5-HT7, percentage inhibition of ligand binding; for inhibition at 0.1 µM: compound at 0.1 μM, read-out: Serotonin (0.1 μM) 5-HT7, percentage inhibition of ligand binding. The protocol: To evaluate in radioligand binding assays the activity of compounds of the invention, human recombinant serotonin (5-Hydroxytryptamine) 5-HT7 receptor expressed in Chinese hamster ovary (CHO) cells (Roth, B. et al, J. Pharmacol. Exp. Ther. 268:1403, 1994; Shen, Y. et al, J. Biol. Chem. 268:18200, 1993) in a modified Tris-HCl buffer (50 mM Tris-HCl, pH 7.4, 10 mM MgCl2, 0.5 mM EDTA) was used. Compounds of invention were incubated with 5.5 nM [^3H]Lysergic acid diethylamide (LSD) for 120 min. at 25° C. Non-specific binding was estimated in the presence of 10 μM Serotonin (5-HT). Receptor proteins were filtered and washed, the filters were then counted to determine [^3H]LSD specifically bound. Compounds were screened at 1 μM or lower, using 1% DMSO as vehicle. Biochemical assay results are presented as the percent inhibition of specific binding in Table 4.

The nature of data set [8]: Stability of product in acidic medium (note in preparation). Format: physicochemical.

In the case of `Cc1cc2c3c(c1)c1c(n3CC(c3ccc(C)nc3)C2)CCN(C)C1` (stereo not drawn) [Compound 1], the inhibition at 1 µM in data set [1] is 19%; in data set [2], 42%; in data set [3], 24%; in data set [4] it was -1%; in data set [5], 44%; in data set [6], 20%.

Regarding `Cc1cc2c3c(c1)c1c(n3CC2c2ccc(F)cc2)CCN(C)C1` (stereo not drawn) [Compound 2], the inhibition at 1 µM in data set [1] was 92%; in data set [2] it was 48%; in data set [7], 89%; in data set [3] it was 57%; in data set [4], 17%; in data set [5] it was 66%. Also, the inhibition at 1 µM in data set [6] was found to be 87%.

As to `Cc1cc2c3c(c1)c1c(n3CCO2)CCN(C)C1` [Compound 4, 5,8-dimethyl-1,2,7,8,9,10-hexahydro-[1,4]oxazino[2,3,4-hi]pyrido[4,3-b]indole], the inhibition at 1 µM in data set [1] amounted to 79%; in data set [2] it was 10%; in data set [7] it was 46%; in data set [3], 25%; in data set [4], 6%; in data set [5], 53%. Also, the inhibition at 1 µM in data set [6] was found to be 56%.

For the compound `Cc1cc2c3c(c1)c1c(n3CC(c3ccc(F)cc3)=CC2)CCN(C)C1` [Compound 156, (Z)-6-(4-fluorophenyl)-2,11-dimethyl-4,7,9,10,11,12-hexahydroazepino[3,2,1-hi]pyrido[4,3-b]indole], the inhibition at 0.1 µM in data set [1] came to 93%; in data set [7], 49%; in data set [3] it was 62%; in data set [6], 98%. Also, the values for the inhibition at 1 µM in data set [4] and in data set [5] were 65% and 101%, respectively.

Consider `Cc1cc2c3c(c1)c1c(n3CC(c3ccc(F)cc3)CC2)CCN(C)C1` (stereo not drawn) [Compound 157, 6-(4-fluorophenyl)-2,11-dimethyl-4,5,6,7,9,10,11,12-octahydroazepino[3,2,1-hi]pyrido[4,3-b]indole], for which the inhibition at 0.1 µM in data set [1] was found to be 96%; in data set [7], 80%; in data set [3], 91%; in data set [6] it was 90%. Besides, the results for the inhibition at 1 µM in data set [4] and in data set [5] were 83% and 95%, respectively.

Turning to `Cc1cc2c3c(c1)c1c(n3CC(c3ccc(F)cc3)=C2)CCN(C)C1` [Compound 158], the inhibition at 0.1 µM was 55% in data set [1], 36% in data set [7], 82% in data set [3] and 81% in data set [6]. For the same compound, the inhibition at 1 µM in data set [4] is 99%; in data set [5], 27%. The “stability in acidic medium” value in data set [8] is “unstable in acidic medium”.

As for `CN1CCc2c(c3cccc4c3n2CC(=O)N4Cc2ccncc2)C1` [Compound 159], the inhibition at 0.1 µM in data set [1] was 35%; in data set [7], 38%; in data set [3], 4%; in data set [6] it was 53%. Moreover, the inhibition at 1 µM in data set [4] was determined as 6%; in data set [5] it was 16%.
